# Patent US12616740B2, “Methods of using a GIP/GLP1 co-agonist for therapy” (ELI LILLY AND COMPANY, priority 2018, dated 2026)
# Key:
# Format in all cases: in vivo, human
# [1] = NCT03131687: weight loss at Week 26
# Experimental: (§1) Clinical Study (NCT03131687) Supporting Maintenance Dose Embodiments A 6-month (26-week) Phase 2 double-blind clinical study is designed to evaluate the safety, efficacy, and PK/PD of 4 dose levels (1 mg, 5 mg, 10 mg and 15 mg respectively) of tirzepatide once weekly by subcutaneous injection compared with dulaglutide 1.5 mg. once weekly (QW) and placebo QW in patients with T2DM who have inadequate glycemic control with diet and exercise with or without a stable dose of metformin. Tirzepatide dose is up-titrated to the maintenance dose using the following weekly dose increments:
# (§2) The study also has a 4-week follow up period. In addition to safety and efficacy for treating T2DM, efficacy endpoints include the effect of tirzepatide on HbA1c, FBG, body weight, lipids, and waist circumference compared with placebo and with dulaglutide 1.5 mg. The study also evaluates the effect of tirzepatide on GI tolerability, hypoglycemia, hypersensitivity reactions, and pancreatic safety, as well as the development of treatment-emergent anti-drug antibodies. Model-based dose response analyses are performed to predict potential for significant HbA1c lowering and weight loss in longer studies. Statistical Analyses: Efficacy: The primary efficacy outcome of HbA1c change from baseline to the 26-week endpoint is analyzed using a Bayesian dose-response model. Analyses are performed on the intention to treat population (mITT) analysis set. Supportive analysis of the primary efficacy outcome for the mITT dataset are the model for post-baseline measures (MMRM) with body mass index (BMI) (<30 kg/m^2, ≥30 kg/m^2), metformin use, treatment, visit, and treatment-by-visit interaction as fixed effects, baseline HbA1c as a covariate, and patient as a random effect. The mean weight change from baseline at 12 and 26 weeks, along with the mean change from baseline of HbA1c at 12 weeks, is analyzed using similar dose-response models as the primary analyses. The percentages of patients with ≥5% or ≥10% body weight loss, reaching the HbA1c target of ≤6.5% or ≤7.0% at 26 weeks, or requiring rescue therapy are analyzed using logistic regression with fixed effects of treatment and strata, and baseline as a covariate. The changes from baseline in FBG (fasting blood glucose), SMBG (self-monitored blood glucose) levels, waist circumference, and mean percentage change in lipids from baseline to 12 and 26 weeks are analyzed using a similar MMRM to the one used for the primary analyses. Table Abbreviations: Dula 1.5 mg=dulaglutide 1.5 mg once weekly; LY means tirzepatide, and LY 1 mg=tirzepatide 1 mg once weekly; LY 5 mg=5 mg once weekly; LY 10 mg=escalation dose group tirzepatide once weekly with highest dose of 10 mg; LY 15 mg=escalation dose group of tirzepatide once weekly with highest dose 15 mg; LOCF=last observation-carried-forward; N=number of patients; pbo=placebo; Week 26=mITT on-treatment data at Week 26 excluding data after study drug discontinuation or rescue drug initiation; mITT=modified intent-to-treat; SD=standard deviation. For Table 4, n=number of patients in the population with baseline and post-baseline value at the specified time point. For Table 6, LY10 mg=escalation dose group tirzepatide, once weekly with highest dose of 10 mg; escalation dose: (5 mg weeks 0 and 1), LY15 mg=escalation dose group tirzepatide, once weekly with highest dose of 15 mg; escalation dose: (5 mg weeks 0 and 1; 10 mg weeks 2 to 5); N=number of patients in specified group, m=number of patients who experienced new event during interval, FolUp=follow up, T/Wk=Time range, (week) and %=means percent patients spending at least some time in treatment group who experienced new event during interval. For Table 7, n is the number of patients with events meeting the criteria; N is number of patients in the population; % is percent of patients in treatment group experiencing the event.
# [2] = system: patients with type 2 diabetes who have inadequate glycemic control; assay: Phase 2 clinical study NCT03311724 (12 weeks, escalation schemes): patients reaching HbA1c target
# Description: This is a 12-week treatment with a 1 week screening (Visit 1) followed by a 1 week lead-in (Visit 2), then 12 weeks of treatment (Visits 3-10, including telephone visits), then followed by 4-week safety follow-up. It is a Phase 2 study designed to examine the efficacy and tolerability of subcutaneously once-weekly tirzepatide compared with placebo in patients with type 2 diabetes who have inadequate glycemic control with diet and exercise alone or with a stable dose of metformin. The study was designed per below and conducted to refine the escalation scheme.
# [3] = system: patients with T2DM who have inadequate glycemic control; assay: Phase 2 clinical study NCT03131687 (26 weeks): patients reaching HbA1c target
# Experimental: as §1, §2
# [4] = LY 1 mg = tirzepatide 1 mg once weekly, LOCF
# [5] = LY 1 mg = tirzepatide 1 mg once weekly, second line, analysis set not given (not LOCF)
# [6] = LY 5 mg = tirzepatide 5 mg once weekly, LOCF
# [7] = LY 5 mg = tirzepatide 5 mg once weekly, second line, analysis set not given (not LOCF)
# [8] = LY 10 mg = tirzepatide once weekly, highest dose 10 mg, LOCF
# [9] = LY 10 mg = tirzepatide once weekly, highest dose 10 mg, second line, analysis set not given (not LOCF)
# [10] = LY 15 mg = tirzepatide once weekly, highest dose 15 mg, LOCF
# [11] = LY 15 mg = tirzepatide once weekly, highest dose 15 mg, second line, analysis set not given (not LOCF)
# [12] = LY 12 mg Group 3 (tirzepatide 4 mg × 4, 8 mg × 4, 12 mg × 4 once weekly), LOCF Week 12 (N = 28)
# [13] = LY 12 mg Group 3 (tirzepatide 4 mg × 4, 8 mg × 4, 12 mg × 4 once weekly), Week 12 mITT on-treatment (N = 27)
# [14] = LY 15 mg-Group 1 (tirzepatide 2.5 mg × 2, 5 mg × 2, 10 mg × 4, 15 mg × 4 once weekly), LOCF Week 12 (N = 28)
# [15] = LY 15 mg-Group 1 (tirzepatide 2.5 mg × 2, 5 mg × 2, 10 mg × 4, 15 mg × 4 once weekly), Week 12 mITT on-treatment (N = 23)
# [16] = LY 15 mg-Group 2 (tirzepatide 2.5 mg × 4, 7.5 mg × 4, 15 mg × 4 once weekly), LOCF Week 12 (N = 27)
# [17] = LY 15 mg-Group 2 (tirzepatide 2.5 mg × 4, 7.5 mg × 4, 15 mg × 4 once weekly), Week 12 mITT on-treatment (N = 26)
# [18] = LY 5 mg = tirzepatide 5 mg once weekly, LOCF Week 26 (N = 55)
# [19] = LY 5 mg = tirzepatide 5 mg once weekly, mITT Week 26 (N = 48)
# [20] = LY 10 mg = tirzepatide once weekly, escalation to highest dose 10 mg, LOCF Week 26 (N = 51)
# [21] = LY 10 mg = tirzepatide once weekly, escalation to highest dose 10 mg, mITT Week 26 (N = 44)
# [22] = LY 15 mg = tirzepatide once weekly, escalation to highest dose 15 mg, LOCF Week 26 (N = 53)
# [23] = LY 15 mg = tirzepatide once weekly, escalation to highest dose 15 mg, mITT Week 26 (N = 35)
substance,measurement,setting,value
tirzepatide [LY],body weight change from baseline (in words),"[1]; 5 mg, 10 mg, and 15 mg doses of tirzepatide, significantly different from placebo and dulaglutide 1.5 mg",significantly decrease body weight from baseline
same,% of Patients Achieving Weight loss ≥10%,[1]; [4],5.8%
same,"odds ratio vs. placebo, Weight loss ≥10%",[1]; [4],7.1
same,% of Patients Achieving Weight loss ≥10%,[1]; [5],6.8%
same,% of Patients Achieving Weight loss ≥15%,[1]; [5],0%
same,"odds ratio vs. placebo, Weight loss ≥10%",[1]; [5],6.7
same,% of Patients Achieving Weight loss ≥10%,[1]; [6],16.4%
same,"odds ratio vs. placebo, Weight loss ≥10%",[1]; [6],20.8
same,% of Patients Achieving Weight loss ≥10%,[1]; [7],16.7%
same,% of Patients Achieving Weight loss ≥15%,[1]; [7],6.3%
same,"odds ratio vs. placebo, Weight loss ≥10%",[1]; [7],17.2
same,% of Patients Achieving Weight loss ≥10%,[1]; [8],39.2%
same,"odds ratio vs. placebo, Weight loss ≥10%",[1]; [8],67.6
same,% of Patients Achieving Weight loss ≥10%,[1]; [9],45.5%
same,% of Patients Achieving Weight loss ≥15%,[1]; [9],25.0%
same,"odds ratio vs. placebo, Weight loss ≥10%",[1]; [9],71.7
same,% of Patients Achieving Weight loss ≥10%,[1]; [10],37.7%
same,"odds ratio vs. placebo, Weight loss ≥10%",[1]; [10],66.2
same,% of Patients Achieving Weight loss ≥10%,[1]; [11],54.3%
same,% of Patients Achieving Weight loss ≥15%,[1]; [11],34.3%
same,"odds ratio vs. placebo, Weight loss ≥10%",[1]; [11],109.2
same,placebo-adjusted changes from baseline in HbA1c (in words),"[2]; 12-mg and 15-mg tirzepatide doses, after 12 weeks of treatment, including an 8-week escalation period",statistically significant and clinically relevant
same,% of Patients Reaching HbA1c Target <5.7%,[2]; [12],3.6%
same,% of Patients Reaching HbA1c Target <7%,[2]; [12],71.4%
same,"odds ratio vs. placebo, Patients Reaching HbA1c Target <5.7%",[2]; [12],2.8
same,"odds ratio vs. placebo, Patients Reaching HbA1c Target <7%",[2]; [12],16.1
same,% of Patients Reaching HbA1c Target <5.7%,[2]; [13],3.7%
same,% of Patients Reaching HbA1c Target <7%,[2]; [13],74.1%
same,"odds ratio vs. placebo, Patients Reaching HbA1c Target <5.7%",[2]; [13],2.5
same,"odds ratio vs. placebo, Patients Reaching HbA1c Target <7%",[2]; [13],56.5
same,% of Patients Reaching HbA1c Target <5.7%,[2]; [14],3.6%
same,% of Patients Reaching HbA1c Target <7%,[2]; [14],78.6%
same,"odds ratio vs. placebo, Patients Reaching HbA1c Target <5.7%",[2]; [14],2.9
same,"odds ratio vs. placebo, Patients Reaching HbA1c Target <7%",[2]; [14],25.1
same,% of Patients Reaching HbA1c Target <5.7%,[2]; [15],4.3%
same,% of Patients Reaching HbA1c Target <7%,[2]; [15],87.0%
same,"odds ratio vs. placebo, Patients Reaching HbA1c Target <5.7%",[2]; [15],3.1
same,"odds ratio vs. placebo, Patients Reaching HbA1c Target <7%",[2]; [15],183.5
same,% of Patients Reaching HbA1c Target <5.7%,[2]; [16],7.4%
same,% of Patients Reaching HbA1c Target <7%,[2]; [16],85.2%
same,"odds ratio vs. placebo, Patients Reaching HbA1c Target <5.7%",[2]; [16],5.0
same,"odds ratio vs. placebo, Patients Reaching HbA1c Target <7%",[2]; [16],37.9
same,% of Patients Reaching HbA1c Target <5.7%,[2]; [17],7.7%
same,% of Patients Reaching HbA1c Target <7%,[2]; [17],84.6%
same,"odds ratio vs. placebo, Patients Reaching HbA1c Target <5.7%",[2]; [17],4.6
same,"odds ratio vs. placebo, Patients Reaching HbA1c Target <7%",[2]; [17],157.5
same,HbA1c change from baseline (in words),"[3]; 5 mg, 10 mg, and 15 mg doses of tirzepatide, significantly different from placebo and from dulaglutide 1.5 mg",significantly decrease HbA1c from baseline
same,% of Patients Reaching HbA1c Target <5.7%,[3]; [18],3.6%
same,% of Patients Reaching HbA1c Target <6%,[3]; [18],25.5%
same,"odds ratio vs. placebo, Patients Reaching HbA1c Target <5.7%",[3]; [18],1.6
same,"odds ratio vs. placebo, Patients Reaching HbA1c Target <6%",[3]; [18],11.8
same,% of Patients Reaching HbA1c Target <5.7%,[3]; [19],4.3%
same,% of Patients Reaching HbA1c Target <6%,[3]; [19],23.4%
same,"odds ratio vs. placebo, Patients Reaching HbA1c Target <5.7%",[3]; [19],1.7
same,"odds ratio vs. placebo, Patients Reaching HbA1c Target <6%",[3]; [19],10.5
same,% of Patients Reaching HbA1c Target <5.7%,[3]; [20],18.0%
same,% of Patients Reaching HbA1c Target <6%,[3]; [20],46.0%
same,"odds ratio vs. placebo, Patients Reaching HbA1c Target <5.7%",[3]; [20],7.8
same,"odds ratio vs. placebo, Patients Reaching HbA1c Target <6%",[3]; [20],28.7
same,% of Patients Reaching HbA1c Target <5.7%,[3]; [21],20.9%
same,% of Patients Reaching HbA1c Target <6%,[3]; [21],51.2%
same,"odds ratio vs. placebo, Patients Reaching HbA1c Target <5.7%",[3]; [21],7.9
same,"odds ratio vs. placebo, Patients Reaching HbA1c Target <6%",[3]; [21],34.5
same,% of Patients Reaching HbA1c Target <5.7%,[3]; [22],30.2%
same,% of Patients Reaching HbA1c Target <6%,[3]; [22],37.7%
same,"odds ratio vs. placebo, Patients Reaching HbA1c Target <5.7%",[3]; [22],14.4
same,"odds ratio vs. placebo, Patients Reaching HbA1c Target <6%",[3]; [22],22.0
same,% of Patients Reaching HbA1c Target <5.7%,[3]; [23],42.9%
same,% of Patients Reaching HbA1c Target <6%,[3]; [23],54.3%
same,"odds ratio vs. placebo, Patients Reaching HbA1c Target <5.7%",[3]; [23],26.6
same,"odds ratio vs. placebo, Patients Reaching HbA1c Target <6%",[3]; [23],48.7
